Like-named read-outs stand apart in the source and are kept apart here. A value given as a limit tells only on which side of the number the result lay.

One may read the IC50 as the concentration needed to halve the response being measured.

Assay [1] deals with Human cGAS amino acids 155-522 (Homo sapiens (Human), UniProt Q8N884). The assay is described as follows: cGAS biochemical activity assay (ATP remaining, Kinase-Glo Max luminescence). As to conditions: human cGAS 155-522, ATP remaining (Kinase-Glo Max); read-out: cGAS IC50. (In general: Kinase-Glo measures the ATP left after a reaction by luminescence.)
Assay [2] relates to cGAS/STING pathway in THP1 cells. The assay is described as follows: THP1 cell-based cGAS/STING pathway activity assay (IRF-3-linked luciferase reporter). A digest of the protocol: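 THP1 cells carrying an IRF-3-driven luciferase reporter were read across a range of compound concentrations, and IC50 values were derived from these concentration responses; the assay upper limit was 100 μM.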

Chain of Human cGAS amino acids 155-522 (Q8N884 157-522): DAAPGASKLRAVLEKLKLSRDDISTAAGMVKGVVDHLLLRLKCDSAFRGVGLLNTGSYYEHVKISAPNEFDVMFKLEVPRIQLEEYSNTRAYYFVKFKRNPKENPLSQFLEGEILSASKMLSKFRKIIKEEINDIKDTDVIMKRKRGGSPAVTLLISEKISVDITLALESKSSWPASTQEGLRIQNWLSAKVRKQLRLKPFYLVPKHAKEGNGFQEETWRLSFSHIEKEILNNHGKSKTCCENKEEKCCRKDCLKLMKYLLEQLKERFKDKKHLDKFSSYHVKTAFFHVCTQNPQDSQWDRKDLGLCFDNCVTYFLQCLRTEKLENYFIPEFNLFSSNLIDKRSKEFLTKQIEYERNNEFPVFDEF

`Cc1[nH]c2c(-c3ccccc3)c(C#N)nn2c(=O)c1-c1nc2ccc(N)cc2o1` [Compound C1193, 6-(6-aminobenzo[d]oxazol-2-yl)-5-methyl-7-oxo-3-phenyl-4,7-dihydropyrazolo[1,5-a]pyrimidine-2-carbonitrile]: the IC50 in assay [1] was under 20 µM; in assay [2] (Homo sapiens, THP-1), over 100 µM.
As for `COc1c(Cl)ccc2oc(-c3c(C)[nH]c4c(-c5ccccc5)c(C(F)(F)F)nn4c3=O)nc12` [Compound C1095, 6-(5-chloro-4-methoxybenzo[d]oxazol-2-yl)-5-methyl-3-phenyl-2-(trifluoromethyl)pyrazolo[1,5-a]pyrimidin-7(4H)-one], the IC50 was under 20 µM in assay [1] and over 100 µM in assay [2] (Homo sapiens, THP-1).
On the same counts, the results for `Cc1[nH]c2c(-c3ccccc3)c(C(F)(F)F)nn2c(=O)c1-c1nc2c(Br)cccc2o1` [Compound C1040, 6-(4-bromobenzo[d]oxazol-2-yl)-5-methyl-3-phenyl-2-(trifluoromethyl)pyrazolo[1,5-a]pyrimidin-7(4H)-one] are under 20 µM and under 20 µM.
Taken in the same sequence, the figures for `Cc1[nH]c2c(-c3ccccc3)c(C(F)(F)F)nn2c(=O)c1-c1nnc(N2CCCCC2CN)o1` (stereo not drawn) [Compound D1070, 6-(5-(2-(aminomethyl)piperidin-1-yl)-1,3,4-oxadiazol-2-yl)-5-methyl-3-phenyl-2-(trifluoromethyl)pyrazolo[1,5-a]pyrimidin-7(4H)-one] were under 20 µM and over 100 µM.
As for `COc1cccc2oc(-c3c(C(=O)NCc4cc[nH]n4)[nH]c4c(-c5ccccc5)c(C(F)(F)F)nn4c3=O)nc12` [Compound C1245, N-((1H-pyrazol-3-yl)methyl)-6-(4-methoxybenzo[d]oxazol-2-yl)-7-oxo-3-phenyl-2-(trifluoromethyl)-4,7-dihydropyrazolo[1,5-a]pyrimidine-5-carboxamide], the IC50 in assay [1] is under 20 µM; in assay [2] (Homo sapiens, THP-1) it was over 100 µM.
Taken in the same sequence, the figures for `CSc1cccc2oc(-c3c(C)[nH]c4c(-c5ccccc5)c(C#N)nn4c3=O)nc12` [Compound C1204, 5-methyl-6-(4-(methylthio)benzo[d]oxazol-2-yl)-7-oxo-3-phenyl-4,7-dihydropyrazolo[1,5-a]pyrimidine-2-carbonitrile] were under 20 µM and over 100 µM.
As for `Cc1[nH]c2c(-c3ccccc3)c(C(F)(F)F)nn2c(=O)c1-c1nnc(C2CCCOC2)o1` (stereo not drawn) [Compound D1015, 5-methyl-3-phenyl-6-(5-(tetrahydro-2H-pyran-3-yl)-1,3,4-oxadiazol-2-yl)-2-(trifluoromethyl)pyrazolo[1,5-a]pyrimidin-7(4H)-one], the IC50 is 20 to 250 µM in assay [1] and over 100 µM in assay [2] (Homo sapiens, THP-1).
On the same counts, the results for `COc1cccc2oc(-c3c(CO)[nH]c4c(-c5ccccc5)c(C(F)(F)F)nn4c3=O)nc12` [Compound C1103, 5-(hydroxymethyl)-6-(4-methoxybenzo[d]oxazol-2-yl)-3-phenyl-2-(trifluoromethyl)pyrazolo[1,5-a]pyrimidin-7(4H)-one] are under 20 µM and 20 to 100 µM.
`CO[C@H]1CCCCC1c1nnc(-c2c(C)[nH]c3c(-c4ccccc4)c(C(F)(F)F)nn3c2=O)o1` (stereo partly drawn) [D1046 Iso-1]: the IC50 in assay [1] and in assay [2] (read-out: THP-1 IC50) was under 20 µM each time.
As for `COc1ccnc2oc(-c3c(C)[nH]c4c(-c5ccccc5)c(C(F)(F)F)nn4c3=O)nc12` [Compound C1058, 6-(7-methoxyoxazolo[5,4-b]pyridin-2-yl)-5-methyl-3-phenyl-2-(trifluoromethyl)pyrazolo[1,5-a]pyrimidin-7(4H)-one], the IC50 in assay [1] is under 20 µM; in assay [2] (Homo sapiens, THP-1), over 100 µM.
On to `CCOC(=O)c1coc(-c2c(C)[nH]c3c(-c4ccccc4)c(C(F)(F)F)nn3c2=O)n1` [Compound C1101, ethyl 2-(5-methyl-7-oxo-3-phenyl-2-(trifluoromethyl)-4,7-dihydropyrazolo[1,5-a]pyrimidin-6-yl)oxazole-4-carboxylate], for which the IC50 was under 20 µM in assay [1] and 20 to 100 µM in assay [2] (Homo sapiens, THP-1).
Take `COc1ccccc1S(=O)(=O)NC(=O)c1c(C)[nH]c2c(-c3ccccc3)c(C(F)(F)F)nn2c1=O` [Compound A1121, N-((2-methoxyphenyl)sulfonyl)-5-methyl-7-oxo-3-phenyl-2-(trifluoromethyl)-4,7-dihydropyrazolo[1,5-a]pyrimidine-6-carboxamide]: the concentration for half-maximal inhibition (IC50) is under 20 µM in assay [1] and over 100 µM in assay [2] (Homo sapiens, THP-1).
As to `COc1[nH]c2c(-c3ccccc3)c(C(F)(F)F)nn2c(=O)c1-c1nc2c(OC)cccc2o1` [Compound C1084, 5-methoxy-6-(4-methoxybenzo[d]oxazol-2-yl)-3-phenyl-2-(trifluoromethyl)pyrazolo[1,5-a]pyrimidin-7(4H)-one], the IC50 in assay [1] was under 20 µM; in assay [2] (Homo sapiens, THP-1), under 20 µM.
As to `COc1ccc(C(C)=O)c2oc(-c3c(C)[nH]c4c(-c5ccccc5)c(C(F)(F)F)nn4c3=O)nc12` [Compound C1111, 6-(7-acetyl-4-methoxybenzo[d]oxazol-2-yl)-5-methyl-3-phenyl-2-(trifluoromethyl)pyrazolo[1,5-a]pyrimidin-7(4H)-one], the IC50 is under 20 µM in assay [1] and under 20 µM in assay [2] (Homo sapiens, THP-1).
`Cc1[nH]c2c(-c3ccccc3)c(C(F)(F)F)nn2c(=O)c1-c1nc2ccc(N)cc2o1` [Compound C1156, 6-(6-aminobenzo[d]oxazol-2-yl)-5-methyl-3-phenyl-2-(trifluoromethyl)pyrazolo[1,5-a]pyrimidin-7(4H)-one]: the IC50 in assay [1] is under 20 µM; in assay [2] (Homo sapiens, THP-1), 20 to 100 µM.
On to `COc1cccc2oc(-c3c(C(N)=O)[nH]c4c(-c5ccccc5)c(C(F)(F)F)nn4c3=O)nc12` [Compound C1132, 6-(4-methoxybenzo[d]oxazol-2-yl)-7-oxo-3-phenyl-2-(trifluoromethyl)-4,7-dihydropyrazolo[1,5-a]pyrimidine-5-carboxamide], for which the IC50 in assay [1] is under 20 µM; in assay [2] (Homo sapiens, THP-1) it was over 100 µM.
`COc1cccc2oc(-c3c(Cn4ccnc4)[nH]c4c(-c5ccccc5)c(C(F)(F)F)nn4c3=O)nc12` [Compound C1180, 5-((1H-imidazol-1-yl)methyl)-6-(4-methoxybenzo[d]oxazol-2-yl)-3-phenyl-2-(trifluoromethyl)pyrazolo[1,5-a]pyrimidin-7(4H)-one]: the IC50 in assay [1] is under 20 µM; in assay [2] (Homo sapiens, THP-1), over 100 µM.
On the same counts, the results for `Cc1[nH]c2c(-c3ccccc3)c(C(F)(F)F)nn2c(=O)c1-c1nnc(C2CCCO2)o1` (stereo not drawn) [Compound D1012, 5-methyl-3-phenyl-6-(5-(tetrahydrofuran-2-yl)-1,3,4-oxadiazol-2-yl)-2-(trifluoromethyl)pyrazolo[1,5-a]pyrimidin-7(4H)-one] are under 20 µM and over 100 µM.
As to `COc1cc(C(C)O)cc2oc(-c3c(C)[nH]c4c(-c5ccccc5)c(C#N)nn4c3=O)nc12` (stereo not drawn) [Compound C1240, 6-(6-(1-hydroxyethyl)-4-methoxybenzo[d]oxazol-2-yl)-5-methyl-7-oxo-3-phenyl-4,7-dihydropyrazolo[1,5-a]pyrimidine-2-carbonitrile], the IC50 in assay [1] is under 20 µM; in assay [2] (Homo sapiens, THP-1), under 20 µM.
For the compound `COc1cccc2sc(-c3c(C)[nH]c4c(-c5ccccc5)c(C(F)(F)F)nn4c3=O)nc12` [Compound C1070, 6-(4-methoxybenzo[d]thiazol-2-yl)-5-methyl-3-phenyl-2-(trifluoromethyl)pyrazolo[1,5-a]pyrimidin-7(4H)-one], the IC50 in assay [1] is under 20 µM; in assay [2] (Homo sapiens, THP-1), under 20 µM.
On to `CCOc1cccc2oc(-c3c(C)[nH]c4c(-c5ccccc5)c(C(F)(F)F)nn4c3=O)nc12` [Compound C1038, 6-(4-ethoxybenzo[d]oxazol-2-yl)-5-methyl-3-phenyl-2-(trifluoromethyl)pyrazolo[1,5-a]pyrimidin-7(4H)-one], for which the IC50 in assay [1] is under 20 µM; in assay [2] (Homo sapiens, THP-1), under 20 µM.
For `COc1cccc2oc(-c3c(COCCO)[nH]c4c(-c5ccccc5)c(C#N)nn4c3=O)nc12` [Compound C1248, 5-((2-hydroxyethoxy)methyl)-6-(4-methoxybenzo[d]oxazol-2-yl)-7-oxo-3-phenyl-4,7-dihydropyrazolo[1,5-a]pyrimidine-2-carbonitrile], the IC50 in assay [1] is under 20 µM; in assay [2] (Homo sapiens, THP-1) it was over 100 µM.
`Cc1[nH]c2c(-c3ccccc3)c(C(F)(F)F)nn2c(=O)c1C(=O)Nc1ccccc1` [Compound A1002, 5-methyl-7-oxo-N,3-diphenyl-2-(trifluoromethyl)-4,7-dihydropyrazolo[1,5-a]pyrimidine-6-carboxamide]: the IC50 in assay [1] is under 20 µM; in assay [2] (Homo sapiens, THP-1), 20 to 100 µM.
On the same counts, the results for `COc1cccc(NC(=O)c2c(C)[nH]c3c(-c4ccccc4)c(C(F)(F)F)nn3c2=O)c1Cl` [Compound A1135, N-(2-chloro-3-methoxyphenyl)-5-methyl-7-oxo-3-phenyl-2-(trifluoromethyl)-4,7-dihydropyrazolo[1,5-a]pyrimidine-6-carboxamide] are under 20 µM and under 20 µM.
For `CCc1cccc2oc(-c3c(C)[nH]c4c(-c5ccccc5)c(C(F)(F)F)nn4c3=O)nc12` [Compound C1046, 6-(4-ethylbenzo[d]oxazol-2-yl)-5-methyl-3-phenyl-2-(trifluoromethyl)pyrazolo[1,5-a]pyrimidin-7(4H)-one], the IC50 in assay [1] is under 20 µM; in assay [2] (Homo sapiens, THP-1), under 20 µM.
With `COc1cccc2oc(-c3c(-c4conc4C)[nH]c4c(-c5ccccc5)c(C(F)(F)F)nn4c3=O)nc12` [Compound C1253, 6-(4-methoxybenzo[d]oxazol-2-yl)-5-(3-methylisoxazol-4-yl)-3-phenyl-2-(trifluoromethyl)pyrazolo[1,5-a]pyrimidin-7(4H)-one], the IC50 in assay [1] is under 20 µM; in assay [2] (Homo sapiens, THP-1), 20 to 100 µM.
`Cc1[nH]c2c(-c3ccccc3)c(C(F)(F)F)nn2c(=O)c1-c1nc2c(C#N)cccc2o1` [Compound C1075, 2-(5-methyl-7-oxo-3-phenyl-2-(trifluoromethyl)-4,7-dihydropyrazolo[1,5-a]pyrimidin-6-yl)benzo[d]oxazole-4-carbonitrile]: the IC50 in assay [1] is under 20 µM; in assay [2] (Homo sapiens, THP-1), over 100 µM.

Source of the values: patent US10738056B2 (Aduro BioTech, Inc., priority 2017, dated 2020).
